CC(=O)N[C@H](C(=O)O)C(C)C
solubility (mole fraction)
Conditions	283.15 K	288.15 K	293.15 K	298.15 K	303.15 K	308.15 K	313.15 K	318.15 K	323.15 K	328.15 K
in 1,4-dioxane	–	0.0324	0.0363	0.0427	0.0495	0.06	0.0712	0.0805	0.0921	0.109
in 2-butanone	0.00606	0.00748	0.00907	0.0112	0.0141	0.0176	0.021	0.0245	0.0292	–
in acetone	0.0102	0.0133	0.0163	0.0196	0.0238	0.0284	0.0333	0.039	0.0437	–
in acetonitrile	0.00204	0.0026	0.00352	0.00464	0.0055	0.00668	0.00792	0.00909	0.0105	–
in dimethyl carbonate	0.00116	0.00139	0.00169	0.0021	0.00261	0.00331	0.00395	0.00489	0.00611	–
in ethyl acetate	0.00279	0.00342	0.00403	0.00487	0.006	0.00718	0.00847	0.01	0.0119	–
in isobutanol	0.0341	0.0396	0.0465	0.0566	0.0648	0.0777	0.0881	0.101	0.114	–
in isopropanol	0.0401	0.048	0.0558	0.0662	0.0782	0.091	0.104	0.12	0.134	–
in methyl acetate	0.00339	0.00393	0.00485	0.0058	0.00694	0.0082	0.00972	0.0112	0.0128	–
in n-butanol	0.0371	0.0428	0.0506	0.0595	0.0685	0.0786	0.0902	0.104	0.115	–
in n-propanol	0.0449	0.0512	0.06	0.0747	0.0876	0.111	0.13	0.151	0.171	–
in water	0.00557	0.00611	0.0066	0.00748	0.00872	0.01	0.0116	0.0137	0.0159	–
